Data: patent US4389412A, “Substituted cyclopropanecarboxylic acid esters and pesticidal compositions containing the same as active ingredient” (priority 1979, dated 1983)
Converted amounts (≈) assume the structure as drawn. Like-named read-outs stand apart in the source and are kept apart here.

Key:
[1] = Fish toxicity test with guppies; assay type: in vivo, Lebistes reticulatus; settings: guppy, water, guppies, 20° C., read-out: TLm (48 hrs.)
Procedure: (§1) Fish toxicity test with guppies (Lebistes reticulatus)
(§2) To 5 liters of water were added 250 mg of Sorpol SM-200 (trademark, Toho Chemical Co., Ltd.) as a surfactant and 2.5 ml of an acetone solution containing one of the test compounds in a predetermined concentration. The mixture was stirred thoroughly to prepare a test water. Ten female guppies (Lebistes reticulatus) of from 3 to 4 months of age were released into the test water which was maintained at 20° C. and the TLm (median tolerance limit, ppm) was determined.

[2] = system: guppies (Lebistes reticulatus); experiment: Fish toxicity test with guppies; assay type: in vivo; settings: Table 1; 48 hrs.
Procedure: as §1, §2

[3] = Fish toxicity test with carp; assay type: in vivo, Cyprinus carpio L; settings: carp, water, 48 hrs., 21±1° C.; read-out: TLm, Carp (48 hrs.)
Procedure: Fish toxicity test with carp (Cyprinus carpio L)
An acetone solution of one of the test compounds as mentioned in Table 10 and Tween-20 (the same surfactant as mentioned hereinbefore) was prepared. To 50 liters of water (30 cm deep) in a glass tank was added the above acetone solution. The mixture was stirred thoroughly to prepare an aqueous solution containing the test compound in a predetermined concentration. This was used as a test water. Five carps (Cyprinus carpio L) with a body weight of about 6 g and a body length of about 6 cm were released into each test water which was maintained at 21±1° C. After 48 hours, the test fish was examined for death. The TLm (median tolerance limit, ppm) was determined. The test water was moderately aerated.

[4] = system: green rice leafhoppers (Nephotettix cincticeps Uhler); experiment: Mortality test with green rice leafhoppers by topical application method; settings: Nephotettix cincticeps, in Oryza sativa, 24 h; for mortality at 10 ng: read-out: Pesticidal effect, green rice leafhopper
Procedure: Mortality test with green rice leafhoppers (Nephotettix cincticeps Uhler) by topical application method
Then, the insects were kept at 25° C. with access to rice plant seedlings. The insects were used in groups of 15 individuals each.

[5] = system: houseflies (Musca domestica); experiment: Mortality test with houseflies by topical application method; settings: 24 h; for mortality at 0.001 mg: read-out: Pesticidal effect, housefly
Procedure: Mortality test with houseflies (Musca domestica) by topical application method
Each of the compounds according to this invention and the control compounds (Table 2) was accurately weighted and a 0.1% solution of each sample in acetone was prepared. Female adult houseflies (Musca domestica) resistant to organophosphorus pesticides, were anesthetized with ether and 0.5 μl or 1.0 μl of the above solution was micropipetted onto the prothoracic dorsal region of each insect. The insects were then put in a high-walled dish together with feed and the dish was covered with a wire-mesh cover and kept at a temperature of 25° C. The test insects were used in groups of 30 individuals each. After 24 hours the insects were examined for deaths and the percent mortality was calculated.

[6] = system: tobacco cutworms (Prodenia litura Fabricius); experiment: Mortality test with tobacco cutworms by topical application method; assay type: in vivo; settings: 24 h
Procedure: Mortality test with tobacco cutworms (Prodenia litura Fabricius) by topical application method
Using a microsyringe, 0.5 μl of the above solution was dripped onto the thoracic adbominal region of each of 3-instar tobacco cutworm (Prodenia litura Fabricius) larvae. […] The test larvae were used in groups of 20 individuals each.

carp and water flea = experiment: Fish toxicity ranking according to Japanese regulations; set-up: species or system Cyprinus carpio L; Daphnia pulex; settings: from TLm for carp and water flea
Procedure: The above ranking with symbols A, B and C were determined according to Japanese regulations relative to application of agricultural chemicals, and these symbols are defined as follows: […]
A: TLm (48 hrs.) value >10 ppm for carp and TLm (3 hrs.) value >0.5 ppm for water flea, wherein toxicity to fishes is not observed by usual application.
B: TLm (48 hrs.) value 10-0.5 ppm for carp; or TLm (48 hrs.) value >10 ppm for carp and TLm (3 hrs.) value <0.5 ppm for water flea, wherein appreciable toxicity to fishes is not observed by usual application but may be observed when applied to wide area at one time.
C: TLm (48 hrs.) value <0.5 ppm for carp, wherein toxicity to fishes is so strongly observed by usual application that both the application method and application area are strictly restricted.

[7] = system: rice stem borers (Chilo suppressalis Walker); experiment: Mortality test with rice stem borers by topical application method; assay type: in vivo; settings: 24 h; for mortality at 0.001 mg: read-out: Pesticidal effect, rice stem borer
Procedure: Mortality test with rice stem borers (Chilo suppressalis Walker) by topical application method
Using a microsyringe, 0.5 μl of the above solution was applied to the thoracic abdominal region of each final-instar larva of rice stem borer (Chilo suppressalis Walker). […] The test larvae were used in groups of 20 individuals each.

[8] = Toxicity test with water-fleas; assay type: in vivo, Daphnia pulex; settings: water, 25±1° C., read-out: TLm, Water-flea (6 hrs.)
Procedure: Toxicity test with water-fleas (Daphnia pulex)
An acetone solution of one of the test compounds as mentioned in Table 10 and Tween-20 (the same surfactant as mentioned hereinbefore) was prepared. To 100 ml of water in a high-walled dish (9 cm in diameter, 7 cm deep) was added the above acetone solution. The mixture was stirred thoroughly to prepare an aqueous solution containing the test compound in a predetermined concentration. This was used as a test water. Twenty water-fleas (Daphnia pulex) were released into each test water which was maintained at 25±1° C. After 6 hours, the water-fleas were examined for deaths. The TLm (median tolerance limit, ppm) was determined.

[9] = Fish toxicity safety factor (TLm divided by maximum concentration in cover water); set-up: species or system carp; settings: in vivo, TLm / maximum concentration in cover water at LC50 application (100 l per 10 ares, 5 cm depth)
Procedure: To further confirm the low toxicity to fish and high pesticidal activity of Compounds (1) and (2) according to this invention as evidenced by the fish toxicity tests with carps and the above tests, fish toxicity safety factors were calculated from the fish toxicity and pesticidal test data. These fish toxicity safety factors are indicators of safety to fish inhabiting a paddy field to which Compounds (1) and (2) may be actually applied for pest control purposes.
It is first assumed that such a pesticidal solution would normally be applied at the rate of 100 l per 10 ares of paddy field. It is also assumed that a solution (100 l) corresponding to the LC50 of the compounds would be applied to 10 ares of a paddy field carrying a cover water with a depth of 5 cm above ground surface and that all the solution would then find its way into the cover water. The expected maximum concentration of the compound in the cover water is then calculated. The fish toxicity safety factor of a pesticidal compound is defined as the value obtained by dividing the TLm (ppm) of the particular compound by the maximum concentration of the compound in cover water. The meaning of the value of the fish toxicity safety factor being one (1) is that the maximum concentration of the particular compound in cover water corresponds to the TLm of said compound. It is understood that when the pesticidal compound having a fish toxicity safety factor value of less than one (1) is applied to a paddy field, it has a risk of destroying the fish inhabiting there, and that the higher the safety factor value, the higher is the safety of the compound to fish.
This fish toxicity safety factor will now be explained in further detailed by taking the trans-isomer of Compound (2) of this invention as an example.
On the other hand, the toxicity to fish of this compound is TLm >10 ppm. Therefore, by dividing the TLm (i.e. >10 ppm) by the above cover water maximum concentration (i.e. 0.36 ppm), we obtain a fish toxicity safety factor of >28. Thus, the concentration of the trans-isomerof Compound (2) which kills 50% of pests corresponds to less than 1/28 of the concentration of the same isomer which kills 50% of fish. In other words, this means that the trans-isomer of Compound (2) is extremely safe to fish.

[10] = system: brown planthoppers (Nilaparvata lugens Stal); experiment: Utility Example-1: LC50 on adult brown planthoppers on dipped rice plants; assay type: in vivo; settings: Nilaparvata lugens, 24 h, 25° C., read-out: Pesticidal activity LC50
Procedure: A 1% emulsifiable concentrate of each test compound as prepared by the procedure described in Formulation Example 2 was diluted with water to prepare a test solution of predetermined concentration.
Rice plants, 4 weeks after sowing (cultivated in a pot 6 cm in diameter, 7 seedlings) were dipped in the above solution and after allowing them to dry in the air, the pot was covered with a wire-mesh cage. Then, 30 adult brown planthoppers (Nilaparvata lugens Stal) were released into the cage and the pot was kept in a constant-temperature chamber at 25° C.

[11] = Fish toxicity test with killifish; assay type: in vivo, Orizias latipes; settings: water, killifish, 25±1° C., read-out: TLm (48 hrs.)
Procedure: Fish toxicity test with killifish (Orizias latipes)
An acetone solution of one of the test compounds as mentioned in Table 8 was prepared by adding said test compound to 15 ml of acetone. To 10 liters of water was added a predetermined amount of the above acetone solution and the mixture was stirred thoroughly to prepare an aqueous solution containing the test compound in a predetermined concentration. This was used as a test water. After the each test water was moderately aerated, ten killifishes (Orizias latipes) with a body weight of about 0.25 g and a body length of about 2.5 cm were released into said each test water which was maintained at 25±1° C. After 48 hours, the test fish was examined for death. The TLm (median tolerance limit, ppm) was determined.

[12] = read-out: Pesticidal effect, tobacco cutworm

## CC1(C)C(C=C(Br)Br)C1C(=O)OC(C#N)c1cccc(Oc2ccccc2)c1 (centres unmarked) [Compound (D), Decamethrin]
[1]
  LC50 at 48 h: < 0.5 µg/mL
[2]
  Toxicity to fish TLm, guppy: < 0.5 ppm
[3]
  LC50 at 48 h: 0.0051 µg/mL (≈ 0.0101 µM)
[4]
  mortality at 0.01 µg/female: 100%
  mortality at 0.1 µg/female: 100%
  mortality at 1 µg/female: 100%
  mortality at 10 ng: 100%
[5]
  mortality at 0.5 µg/female: 100%
  mortality at 1 µg/female: 100%
  mortality at 0.001 mg: 100%
[6]; [12]
  mortality at 0.0001 mg: 100%
Carp and water flea
  Ranking: C (TLm (48 hrs.) value <0.5 ppm for carp, wherein toxicity to fishes is so strongly observed by usual application that both the application method and application area are strictly restricted.)
[7]
  mortality at 1 µg/larva: 100%
  mortality at 10 µg/larva: 100%
  mortality at 0.001 mg: 100%

## CC1(C)C(C=C(Cl)Cl)C1C(=O)OCc1cccc(Oc2ccc(Cl)cc2)c1 (stereo not drawn) [Compound (1) cis-/trans- = 20:80]
[3]
  LC50 at 48 h: 2.6 µg/mL (≈ 6.11 µM)
[8]
  LC50 at 6 h: > 40 µg/mL
[9]
  selectivity ratio: 2.5
[10]
  LC50: 520 µg/mL (≈ 1220 µM)
Carp and water flea
  Ranking: B (TLm (48 hrs.) value 10-0.5 ppm for carp; or TLm (48 hrs.) value >10 ppm for carp and TLm (3 hrs.) value <0.5 ppm for water flea, wherein appreciable toxicity to fishes is not observed by usual application but may be observed when applied to wide area at one time.)

## CC1(C)C(C=C(Cl)Cl)C1C(=O)OC(C#N)c1cccc(Oc2ccc(Cl)cc2)c1 (stereo not drawn) [Compound (G) cis-/trans- = 50:50]
[1]
  LC50 at 48 h: < 1 µg/mL
[2]
  Toxicity to fish TLm, guppy: < 1.0 ppm
[11]
  LC50 at 48 h: 0.15 µg/mL (≈ 0.333 µM)
[3]
  LC50 at 48 h: 0.04 µg/mL (≈ 0.0887 µM)
[4]
  mortality at 0.01 µg/female: 100%
  mortality at 0.1 µg/female: 100%
  mortality at 1 µg/female: 100%
  mortality at 10 ng: 100%
[5]
  mortality at 0.5 µg/female: 100%
  mortality at 1 µg/female: 100%
  mortality at 0.001 mg: 100%
[9]
  selectivity ratio: 0.04
[6]
  mortality at 0.0001 mg: 65%
[6]; [12]
  mortality at 0.0001 mg: 65%
[10]
  LC50: 450 µg/mL (≈ 998 µM)
Carp and water flea
  Ranking: C (TLm (48 hrs.) value <0.5 ppm for carp, wherein toxicity to fishes is so strongly observed by usual application that both the application method and application area are strictly restricted.)
[7]
  mortality at 1 µg/larva: 90%
  mortality at 10 µg/larva: 100%
  mortality at 0.001 mg: 90%

## CC1(C)[C@H](C(=O)OC(C#N)c2cccc(Oc3ccc(Cl)cc3)c2)[C@@H]1C=C(Cl)Cl (relative stereo) [Compound (G) cis-]
[3]
  LC50 at 48 h: 0.013 µg/mL (≈ 0.0288 µM)
[8]
  LC50 at 6 h: 5 µg/mL (≈ 11.1 µM)
[9]
  selectivity ratio: 0.01
[10]
  LC50: 620 µg/mL (≈ 1380 µM)
Carp and water flea
  Ranking: C (TLm (48 hrs.) value <0.5 ppm for carp, wherein toxicity to fishes is so strongly observed by usual application that both the application method and application area are strictly restricted.)
[7]
  mortality at 1 µg/larva: 40%
  mortality at 10 µg/larva: 100%

## CC1(C)[C@H](C=C(Cl)Cl)[C@H]1C(=O)OC(C#N)c1cccc(Oc2ccc(Cl)cc2)c1 (relative stereo) [Compound (G) trans-]
[3]
  LC50 at 48 h: 0.09 µg/mL (≈ 0.2 µM)
[8]
  LC50 at 6 h: 1.7 µg/mL (≈ 3.77 µM)
[9]
  selectivity ratio: 0.12
[10]
  LC50: 380 µg/mL (≈ 843 µM)
Carp and water flea
  Ranking: C (TLm (48 hrs.) value <0.5 ppm for carp, wherein toxicity to fishes is so strongly observed by usual application that both the application method and application area are strictly restricted.)
[7]
  mortality at 1 µg/larva: 85%
  mortality at 10 µg/larva: 100%
